Where no end group is shown, it is not given here.
Assays:
[1] = system: histone H1 kinase activity; test: Histone H1 kinase assay on lysates of treated Jurkat cells; format: cell-based, human; settings: FIG. 2B, 6 hr
Experimental: Histone H1 kinase assay. Ten million Jurkat cells were treated with hydroxyurea (100 μg/ml), bleomycin (10 μg/ml), or colchicine (5 μg/ml) with or without addition of TAT-S216A, TAT-S216 or TAT-Control (10 μM) for 6 hr. The cells were washed in cold PBS and lysed at 4° C. in 1 ml of buffer A (50 mM Tris pH 8, 2 mM DTT, 5 mM EDTA, 100 mM NaCl, 0.5% NP40, 20 mM Na3V04, 50 mM NaF, 4 μM Okadaic acid, 5 μg/ml aprotinin, 5 μg/ml pepstatin A and 5 μg/ml leupeptin.). Twenty microliter of p13^suc1 agarose beads (Upstate Biotechnology., Saranac, N.Y.) were added to the cleared lysates, incubated for 4 hr at 4° C., and washed five times with buffer A without 5 mM EDTA, 20 mM Na3V04, 50 mM NaF, 4 μM Okadaic acid. Histone HI kinase activity on the beads were analyzed by using Cdc2 kinase assay kit (Upstate Biotechnology) with [γ-^32P] ATP, followed by 12% SDS-PAGE electrophoresis, and autoradiographed to detect the phosphorylated Histone H1.
(§1) The cell cycle status of the cells treated with TAT-S216A or TAT-S216 upon the DNA damage-induced G2 arrest was analyzed by FACS analysis. Histone H1 kinase activities of theses cells were simultaneously monitored. […] Results are shown in FIG. 2: abrogation of DNA damage-induced G2 arrest by TAT-S216A and TAT-S216 peptides. FIG. 2A, FACS analysis of Jurkat cells treated with bleomycin and peptides. Cells were treated with bleomycin (10 μg/ml) with or without peptides (10 μM) for 20 hr. B, histone H1 kinase analysis. Cell lysates were prepared from the cells treated with the indicated reagent for 6 hr. Concentrations used were: hydroxyurea (HU), 100 μg/ml; bleomycin (Bleo), 10 μg/ml; colchicine, 5 μg/ml; TAT-S216A and TAT-S216, 10 μM. C, FACS analysis of colchicine -and peptide-treated cells. Jurkat cells were treated with colchicine (5 μg/ml) with or without peptide (10 μM) for 20 hr.

Jurkat cells [2] = test: Trypan blue dye exclusion analysis of Jurkat cells treated with bleomycin or colchicine with or without peptides; format: cell-based; settings: for effect on cytotoxicity by colchicine: FIG. 3B, colchicine 5 μg/ml
Experimental: (§2) The effect of TAT-S216A and TAT-S216 on the cell death induced by bleomycin was examined. The results are shown in FIG. 3; Trypan blue dye exclusion analysis of Jurkat cells treated with bleomycin (A) or colchicine (B) with or without indicated peptides. Bars, SD Vertical axis, % viability of the cells; Bleo 5, bleomycin 5 μg/ml; Bleo 10, bleomycin 10 μg/ml; colchicine, 5 μg/ml; TAT-S216 or TAT-S216A, 10 μM of indicated peptide. […] C, survival analysis of PHA blasts treated with bleomycin and peptides. Vertical axis, % viability of the cells determined by trypan blue dye exclusion analysis; horizontal axis, time in hours. Bleo 5, bleomycin 5 μg/ml; Bleo 10, bleomycin 10 μg/ml; TAT-S216 or TAT-S216A, 10 μM of indicated peptide. D, FACS analysis of the cells treated with bleomycin and peptides. PHA-blasts were treated with bleomycin with or without peptides for 20 hr. Vertical axis, cell number; horizontal axis, DNA content indicated by propidium iodide staining.

Jurkat cells [3] = test: Cell-cycle analysis by FACS, DNA damage-induced G2 arrest; format: cell-based, human; settings: bleomycin 10 μg/ml
Experimental: (§3) Cell-cycle analysis. The cell cycle status of the cells treated with peptides and/or bleomycin or colchicine was analyzed by FACS, as described by Kawabe (1997) Nature 385:454-458. In brief, two million Jurkat cells were re-suspended and incubated in 300 μl Krishan's solution (0.1% Sodium citrate, 50 μg/ml PI, 20 μg/ml RNase A and 0.5% NP-40; see supra) for 1 hr at 4° C. and analyzed by FACScan™ (Beckton Dickinson, Mountain View, Calif.) with the program CELLQuest™ (Beckton Dickinson).
as §1

[4] = system: PHA blasts (mitogen-activated normal human T lymphocytes); test: FACS analysis of PHA blasts treated with bleomycin and peptides; format: cell-based; settings: FIG. 3D; for cell cycle pattern of PHA blasts, peptide in addition to bleomycin: 20 hr
Experimental: as §3, §2
In order to confirm the specificity of the effect of these peptides on cancer cells in which the G1 checkpoint is abrogated; the effect of these peptides on normal human cells was investigated. Mitogen-activated normal human T lymphocytes (PHA blasts) were prepared by stimulating peripheral blood mononuclear cells obtained from a healthy donor with PHA for 1 week. These cells were treated with bleomycin (5 and 10 μg/ml) in the presence or absence of either TAT-S216A or TAT-S216.

hChk1 = target: T1, hChk1 (Homo sapiens, UniProt O14757, I471V); test: In vitro immune complex kinase assay, Cdc25C phosphorylation by purified hChk1; format: biochemical; settings: FIG. 1B; peptide 10 μM; substrate 1 μM
T1 construct: made in house; host or cells: insect cells, recombinant baculovirus (lysates provided by Dr. Makoto Nakanishi)
T1 sequence (O14757 1-476 I471V): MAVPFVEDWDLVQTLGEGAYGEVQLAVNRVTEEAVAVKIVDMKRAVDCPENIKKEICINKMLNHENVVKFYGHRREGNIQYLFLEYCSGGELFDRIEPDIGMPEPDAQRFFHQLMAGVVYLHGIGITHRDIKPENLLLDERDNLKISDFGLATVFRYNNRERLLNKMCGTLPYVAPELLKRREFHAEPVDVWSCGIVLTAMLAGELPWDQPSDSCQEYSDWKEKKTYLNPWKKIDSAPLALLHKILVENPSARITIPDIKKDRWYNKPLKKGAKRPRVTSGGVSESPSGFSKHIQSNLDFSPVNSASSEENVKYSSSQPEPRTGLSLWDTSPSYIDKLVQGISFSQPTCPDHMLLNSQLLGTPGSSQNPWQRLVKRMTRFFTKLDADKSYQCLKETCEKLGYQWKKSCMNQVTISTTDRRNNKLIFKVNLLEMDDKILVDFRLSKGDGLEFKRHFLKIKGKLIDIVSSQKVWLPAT
Experimental: Kinase assay. HA-tagged hChk1 (SEQ ID NO:3) and c-myc-tagged Chk2/HuCds1 (SEQ ID NO:4) expressed in insect cells using recombinant baculovirus (see, e.g., Kaneko (1999) Oncogene 18:3673-3681) were purified by immunoprecipitation using anti-HA or anti-c-myc antibodies and protein G-Sepharose. Immune complex kinase reaction was done in PBS with 1 mM DTT, 1 mM MgCl2 and 100 μCi of [γ-^32P] ATP (Amersham; 6000 Ci/mmol) plus purified 1 μM GST-Cdc25C or 10 μM Cdc25C peptide (amino acid 211 to 221 of Cdc25C (SEQ ID NO: 2); […], Sawady Technology Co.) substrates at 30° C. for 15 min in the presence of 10 μM TAT-S216, TAT-S216A or TAT-Control. After the reaction, samples were separated in 12% or 15% SDS-PAGE and autoradiographed to detect GST-Cdc25C or peptide phosphorylation.
The results are shown in FIG. 1: TAT-S216A and TAT-S216 peptides inhibit hChk1 and Chk2/HuCds1 kinase activities in vitro. FIG. 1A. sequences of the peptides. FIG. 1B, in vitro phosphorylation analysis using GST-Cdc25C and purified hChk1. GST-Cdc25C (amino acid 200-256) that was produced in E. coli (DH5α) was used as substrate (1 μM). Immune complex kinase reaction was done in the presence of TAT-S216A (10 μM) or TAT-S216 (10 μM). FIG. 1C, in vitro phosphorylation analysis of hChk1 and Chk2/HuCds1 using synthesized Cdc25C peptide corresponding amino acid 211-221 of Cdc25C ([…] (SEQ ID NO: 2)) as a substrate (10 μM).

Jurkat cells [5] = test: FACS DNA content of bleomycin-treated Jurkat cells with oligopeptides (Example 3); format: cell-based, human; settings: FIG. 6, bleomycin 20 μg/ml, 0, 6, 12, 24 hours
Experimental: The cells with the deficient cell cycle G1 checkpoint (such as a human leukemia-derived cell line Jurkat) were treated with a DNA damaging treatment. As the DNA damaging treatment, the cells were treated with bleomycin or other anti-cancer drugs. These drugs were added to the cell culture medium. Alternatively, the cells were irradiated with gamma irradiation. Peptides were added to these cells and the amount of DNA was determined some 10 to 48 hours after the DNA damage. The harvested cells were re-suspended with the solution that includes propidium iodide, RNase and NP-40 and analyzed by flow cytometer. […]
Jurkat cells were cultured in 10% fetal calf serum with a medium (RPMI 1640) at 37° C./5% CO2 with: bleomycin at 20 μg/ml; bleomycin at 20 μg/ml and the peptide “4aa” (amino acid sequence is GGSPSM (SEQ ID NO: 1931)); bleomycin at 20 μg/ml and the peptide AAA (Table 1); bleomycin at 20 μg/ml and the peptide YNP (Table 1). The amount of DNA was analyzed at 0, 6, 12, 24 hours after the addition of ten microgram of bleomycin with or without the oligopeptides “4aa,” “YNP” and “AAA.” The DNA quantity was analyzed by a flow cytometer (FACS) after the addition of a solution comprising propidium iodide, RNase and NP-40. […]

Jurkat cells [6] = test: FACS DNA content of colchicine-treated Jurkat cells with oligopeptides (Example 3); format: cell-based, human; settings: FIG. 7; colchicine 2.5 μg/ml
Experimental: Other screening methods can be used to identify selective inhibitors of the G2 cell cycle checkpoint. For, the cells are simultaneously treated with an oligopeptide “candidate phosphorylation substrate” and an M phase checkpoint activator, such as colchicine or nocodazol. The DNA content of the cells are analyzed some 10 to 48 hours after the treatment as described above.
In another experiment, an M phase checkpoint activator, colchicine, was used instead of bleomycin: colchicine at 2.5 μg/ml; colchicine at 2.5 μg/ml and the peptide “4aa”; colchicine at 2.5 μg/ml and the peptide AAA (Table 1); colchicine at 2.5 μg/ml and the peptide YNP (Table 1), and no treatment.

[7] = system: PHA blasts (mitogen-activated normal human T lymphocytes); test: Trypan blue dye exclusion survival analysis of PHA blasts treated with bleomycin and peptides; format: cell-based; settings: FIG. 3C; bleomycin 5 and 10 μg/ml; peptide 10 μM
Experimental: Cell culture and plasmids. A human T-cell leukemia-derived cell line, Jurkat, was cultured in RPMI 1640 (Sigma) supplemented with 10% fetal calf serum. (IBL: Immuno-Biological Laboratories, Gunma, Japan) at 37° C./5% CO2. Human pancreatic epitheloid carcinoma-derived cell lines, MIA PaCa2 and PANC1, were cultured in Eagle's MEM (IWAKI, Chiba, Japan) and Dulbecco's modified Eagle's medium with 4 mM […] (Sigma) and 1.0 mM sodium pyruvate (Life Technologies, Inc., Grand Island, N.Y.), respectively, and supplemented with 10% fetal calf serum at 37° C./5% CO2. Normal human peripheral blood lymphocytes were collected by Ficoll-Paque (Amersham Pharmacia Biotech) density gradient. Two million cells/ml were cultured in RPMI 1640 supplemented with 10% fetal calf serum at 37° C./5% CO2 in the presence of 5 μg/ml PHA (Life Technologies, Inc.) for a week. Baculovirus lysates that include HA-tagged hChk1 (SEQ ID NO:3) or c-myc-tagged Chk2/HuCds1 (SEQ ID NO:4) and plasmid for GST-Cdc25C (amino, acid 200-256) were made as described in Matsuoka (1998) Science 282:1893-1897, and provided by Dr. Makoto Nakanishi (Department of Biochemistry, Nagoya City University.
The effect of TAT-S216A and TAT-S216 on the cell death induced by bleomycin was examined. […] Vertical axis, % viability of the cells determined by trypan blue dye exclusion analysis; horizontal axis, time in hours. […]

For Bleomycin [reference compound], the “histone H1 kinase activity on treatment with drug alone” value ([1]; bleomycin 10 μg/ml or hydroxyurea 100 μg/ml) was “decreased”, the “Jurkat cells killed, bleomycin alone” value (Jurkat cells [2]; FIG. 3A, bleomycin at 5 or μ10 g/ml) was 27-30% and the “cell cycle arrest of Jurkat cells by bleomycin alone” value (Jurkat cells [3]) was “arrested exclusively at G2”. For the same substance, the “cell cycle arrest of PHA blasts by bleomycin alone” value ([4]; bleomycin 5 μg/ml) was “arrested at G1 and S phase but not G2”.

For “TAT-Control: control peptide: TAT domain with Cdc25C portion partially deleted and substituted with glycine (GGRSPAMPE) (YGRKKRRQRRRGGRSPAMPE)”, the “histone H1 kinase activity on bleomycin treatment in the presence of peptide” value ([1]; bleomycin 10 μg/ml, peptide 10 μM) was “did not affect”, the “effect on bleomycin-induced cell death / viability of bleomycin-treated Jurkat cells” value (Jurkat cells [2]; FIG. 3A, bleomycin 5 or 10 μg/ml, peptide 10 μM) was “did not affect the viability” and the “G2 arrest in response to bleomycin” value (Jurkat cells [3]; FIG. 2A, peptide 10 μM, 20 hr) was “arrested at G2 similarly to the cells treated with bleomycin alone”. The “phosphorylation of GST-Cdc25C (amino acid 200-256) by baculovirus-produced hChk1” value (hChk1) was “did not inhibit”.

For Y G G P G G G G N (YGGPGGGGN) [YPN], the “G2 checkpoint / accumulation of bleomycin-treated cells at G2/M” value (Jurkat cells [5]) was “specifically abrogated the cell cycle at the G2 checkpoint”, the “G2 checkpoint / accumulation of bleomycin-treated cells at G2/M” value (Jurkat cells [5]; listed as YNP) was “abrogated the G2 checkpoint” and the “accumulation of colchicine-treated cells at the G2/M phase” value (Jurkat cells [6]) was “None of the above tested oligopeptides (Table 1), including, YPN, affected the accumulation”.

In the case of YGRKKRRQRRRLYRSPAMPENL [TAT-S216A], the “effect on cytotoxicity of bleomycin to normal cells (PHA blasts)” value [7] is reported as “did not increase the cytotoxicity of bleomycin to normal cells”, the “effect on cytotoxicity by colchicine” value (Jurkat cells [2]; peptide 10 μM) is reported as “did not affect the cytotoxicity by colchicine” and the “cell cycle pattern of PHA blasts, peptide in addition to bleomycin” value [4] is reported as “no further alteration of cell cycle pattern was observed”.

With YGRKKRRQRRRLYRSPSMPENL [TAT-S216] the “effect on cytotoxicity of bleomycin to normal cells (PHA blasts)” value [7] was “did not increase the cytotoxicity of bleomycin to normal cells”, the “effect on cytotoxicity by colchicine” value (Jurkat cells [2]; peptide 10 μM) was “did not affect the cytotoxicity by colchicine” and the “cell cycle pattern of PHA blasts, peptide in addition to bleomycin” value [4] was “no further alteration of cell cycle pattern was observed”.
